Data reported in US20230183219A1, “CONDENSED SUBSTITUTED HYDROPYRROLES AS ANTAGONISTS OF THE MUSCARINIC ACETYLCHOLINE RECEPTOR M4” (Vanderbilt University, priority 2020, published 2023).

Target: T1, Human M4 (Homo sapiens, UniProt P08173)
T1 construct: Human or rat M4 cDNA, along with the chimeric G protein Gqi5, were transfected into Chinese hamster ovary (CHO-K1) cells; expressed in transfected cells; host or cells: CHO-K1 (Chinese hamster ovary, ATCC), stably co-expressing Gqi5
T1 sequence (P08173 1-479): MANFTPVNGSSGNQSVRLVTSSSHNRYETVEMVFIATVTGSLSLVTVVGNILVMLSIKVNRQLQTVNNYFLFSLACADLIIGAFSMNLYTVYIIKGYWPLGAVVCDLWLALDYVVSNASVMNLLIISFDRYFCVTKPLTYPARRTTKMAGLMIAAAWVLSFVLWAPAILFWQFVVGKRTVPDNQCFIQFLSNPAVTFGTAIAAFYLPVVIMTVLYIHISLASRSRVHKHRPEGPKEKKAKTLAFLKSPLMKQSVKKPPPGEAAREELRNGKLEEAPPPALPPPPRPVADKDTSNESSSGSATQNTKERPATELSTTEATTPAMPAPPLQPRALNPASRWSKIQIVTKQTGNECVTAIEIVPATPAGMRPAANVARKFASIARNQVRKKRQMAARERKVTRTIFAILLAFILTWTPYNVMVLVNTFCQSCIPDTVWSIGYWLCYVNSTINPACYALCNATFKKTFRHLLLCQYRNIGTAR
Experiment: mAChR M4 cell-based functional assay (calcium flux, decrease of EC80 acetylcholine response)
Settings: for remaining activity at 30 µM: read-out: Human M4 Emin; for IC50: M4/Gqi5/CHO-K1 cells, decrease of response to EC80 acetylcholine
Method in brief: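 IC50 reflects inhibition of an EC80 acetylcholine calcium response, fitted by four-parameter logistic equation. Fluo-4-loaded M4/Gqi5 CHO-K1 cells received compound (10-point, 1:3 series) 2 s into the FDSS read, then EC20 acetylcholine at 143 s and EC80 at 268 s.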

## Cn1cc2cc(-c3cc(C#N)c(N[C@H]4C[C@@H]5CN(C[C@H]6CC7CCC6O7)C[C@@H]5C4)nn3)ccc2n1 (stereo partly drawn) [Example 161, 3-(((3aR,5s,6aS)-2-(((2R)-7-oxabicyclo[2.2.1]heptan-2-yl)methyl)octahydro-cyclopenta[c]pyrrol-5-yl)amino)-6-(2-methyl-2H-indazol-5-yl)pyridazine-4-carbonitrile]
% ACh maximum at 30 μM
  remaining activity at 30 µM: 5%
  IC50: 0.002 µM

## COc1c(F)cc(-c2cc(C(F)(F)F)c(N[C@H]3C[C@@H]4CN(CC5CCOCC5)C[C@@H]4C3)nn2)cc1F [Example 80, (3aR,5s,6aS)-N-(6-(3,5-difluoro-4-methoxyphenyl)-4-(trifluoromethyl)pyridazin-3-yl)-2-((tetrahydro-2H-pyran-4-yl)methyl)octahydro-cyclopenta[c]pyrrol-5-amine]
% ACh maximum at 30 μM
  remaining activity at 30 µM: 3%
  IC50: 0.17 µM

## Cn1cc2cc(-c3cc(C#N)c(N[C@H]4C[C@@H]5CN(CC6CCCOC6)C[C@@H]5C4)nn3)ccc2n1 (single isomer, unassigned) [Example 158]
% ACh maximum at 30 μM
  remaining activity at 30 µM: 14%
  IC50: 0.0157 µM

## [2H]C([2H])(C1CCOCC1)N1C[C@H]2C[C@H](Nc3nnc(-c4ccc5c(c4)ncn5C)cc3C(F)(F)F)C[C@H]2C1 [Example 111, (3aR,5s,6aS)-N-(6-(1-methyl-1H-benzo[d]imidazol-5-yl)-4-(trifluoro-methyl)pyridazin-3-yl)-2-((tetrahydro-2H-pyran-4-yl)methyl-d2)octahydro-cyclopenta[c]pyrrol-5-amine]
% ACh maximum at 30 μM
  remaining activity at 30 µM: 3%
  IC50: 0.136 µM

## Cc1ccc(F)cc1-c1cc(C(F)(F)F)c(N[C@H]2C[C@@H]3CN(C[C@H]4COCCO4)C[C@@H]3C2)nn1 [Example 22, (3aR,5s,6aS)-2-(((S)-1,4-dioxan-2-yl)methyl)-N-(6-(5-fluoro-2-methylphenyl)-4-(trifluoromethyl)pyridazin-3-yl)octahydro-cyclopenta[c]pyrrol-5-amine]
% ACh maximum at 30 μM
  remaining activity at 30 µM: 3%
  IC50: 0.0027 µM

## Cn1ccc2ccc(-c3cc(C(F)(F)F)c(N[C@H]4C[C@@H]5CN(CC6CCOCC6)C[C@@H]5C4)nn3)cc21 [Example 90, (3aR,5s,6aS)-N-(6-(1-methyl-1H-indol-6-yl)-4-(trifluoromethyl)pyridazin-3-yl)-2-((tetrahydro-2H-pyran-4-yl)methyl)octahydro-cyclopenta[c]pyrrol-5-amine]
% ACh maximum at 30 μM
  remaining activity at 30 µM: 4%
  IC50: 0.637 µM

## Cc1ccc(F)cc1-c1cc(C(F)(F)F)c(N[C@H]2C[C@@H]3CN(C[C@H]4CCOC4)C[C@@H]3C2)nn1 [Example 31, (3aR,5s,6aS)-N-(6-(5-fluoro-2-methylphenyl)-4-(trifluoromethyl)pyridazin-3-yl)-2-(((R)-tetrahydrofuran-3-yl)methyl)octahydro-cyclopenta[c]pyrrol-5-amine]
% ACh maximum at 30 μM
  remaining activity at 30 µM: 5%
  IC50: 0.13 µM

## Cc1ccc(F)cc1-c1cc(C(F)(F)F)c(N[C@H]2C[C@@H]3CN(CC4COCCO4)C[C@@H]3C2)nn1 (stereo partly drawn) [Example 19, (3aR,5s,6aS)-2-((1,4-dioxan-2-yl)methyl)-N-(6-(5-fluoro-2-methylphenyl)-4-(trifluoromethyl)pyridazin-3-yl)octahydro-cyclopenta[c]pyrrol-5-amine]
% ACh maximum at 30 μM
  remaining activity at 30 µM: 2%
  IC50: 0.0045 µM

## Fc1ccc(-c2cc(C(F)(F)F)c(N[C@H]3C[C@@H]4CN(CC5CCOCC5)C[C@@H]4C3)nn2)c(F)c1 [Example 82, (3aR,5s,6aS)-N-(6-(2,4-difluorophenyl)-4-(trifluoro-methyl)pyridazin-3-yl)-2-((tetrahydro-2H-pyran-4-yl)methyl)octahydro-cyclopenta[c]pyrrol-5-amine]
% ACh maximum at 30 μM
  remaining activity at 30 µM: 3%
  IC50: 0.286 µM

## FC(F)(F)Oc1ccccc1-c1cc(C(F)(F)F)c(N[C@H]2C[C@@H]3CN(CC4CCOCC4)C[C@@H]3C2)nn1 [Example 58, (3aR,5s,6aS)-2-((tetrahydro-2H-pyran-4-yl)methyl)-N-(6-(2-(trifluoro-methoxy)phenyl)-4-(trifluoromethyl)pyridazin-3-yl)octahydro-cyclopenta[c]pyrrol-5-amine]
% ACh maximum at 30 μM
  remaining activity at 30 µM: 3%
  IC50: 0.249 µM

## [2H]C([2H])(C1CCOCC1)N1C[C@H]2C[C@H](Nc3nnc(-c4ccc(OC)cc4C)cc3C(F)(F)F)C[C@H]2C1 [Example 122, (3aR,5s,6aS)-N-(6-(4-methoxy-2-methylphenyl)-4-(trifluoromethyl)pyridazin-3-yl)-2-((tetrahydro-2H-pyran-4-yl)methyl-d2)octahydro-cyclopenta[c]pyrrol-5-amine]
% ACh maximum at 30 μM
  remaining activity at 30 µM: 3%
  IC50: 0.0332 µM

## Cc1ccc(F)cc1-c1cc(C(F)(F)F)c(N[C@H]2C[C@@H]3CN(CC4CCCOC4)C[C@@H]3C2)nn1 (single isomer, unassigned) [Example 121]
% ACh maximum at 30 μM
  Human M4 Emin: 3%
  IC50: 0.0101 µM

## Fc1cc(F)c(-c2cc(C(F)(F)F)c(N[C@H]3C[C@@H]4CN(CC5CCOCC5)C[C@@H]4C3)nn2)cc1F [Example 42, (3aR,5s,6aS)-2-((tetrahydro-2H-pyran-4-yl)methyl)-N-(4-(trifluoromethyl)-6-(2,4,5-trifluorophenyl)pyridazin-3-yl)octahydro-cyclopenta[c]pyrrol-5-amine]
% ACh maximum at 30 μM
  remaining activity at 30 µM: 3%
  IC50: 0.237 µM

## Cn1cc(-c2cc(C(F)(F)F)c(N[C@H]3C[C@@H]4CN(CC5CCOCC5)C[C@@H]4C3)nn2)cn1 [Example 66, (3aR,5s,6aS)-N-(6-(1-methyl-1H-pyrazol-4-yl)-4-(trifluoro-methyl)pyridazin-3-yl)-2-((tetrahydro-2H-pyran-4-yl)methyl)octahydro-cyclopenta[c]pyrrol-5-amine]
% ACh maximum at 30 μM
  remaining activity at 30 µM: 3%
  IC50: 0.119 µM

## N#Cc1cc(-c2cc(F)ccc2Cl)nnc1N[C@H]1C[C@@H]2CN(CC3CCOCC3)C[C@@H]2C1 [Example 145, 6-(2-chloro-5-fluorophenyl)-3-(((3aR,5s,6aS)-2-((tetrahydro-2H-pyran-4-yl)methyl)octahydro-cyclopenta[c]pyrrol-5-yl)amino)pyridazine-4-carbonitrile]
% ACh maximum at 30 μM
  remaining activity at 30 µM: 3%
  IC50: 0.0014 µM

## [2H]C([2H])(C1CCOCC1)N1C[C@H]2C[C@H](Nc3nnc(-c4ccc5nn(C)cc5c4)cc3C(F)(F)F)C[C@H]2C1 [Example 18, (3aR,5s,6aS)-N-(6-(2-methyl-2H-indazol-5-yl)-4-(trifluoro-methyl)pyridazin-3-yl)-2-((tetrahydro-2H-pyran-4-yl)methyl-d2)octahydro-cyclopenta[c]pyrrol-5-amine]
% ACh maximum at 30 μM
  remaining activity at 30 µM: 3%
  IC50: 0.0298 µM

## COc1ccc(-c2cc(C(F)(F)F)c(N[C@H]3C[C@@H]4CN(CC5CCOCC5)C[C@@H]4C3)nn2)c(F)c1 [Example 61, (3aR,5s,6aS)-N-(6-(2-fluoro-4-methoxyphenyl)-4-(trifluoromethyl)pyridazin-3-yl)-2-((tetrahydro-2H-pyran-4-yl)methyl)octahydro-cyclopenta[c]pyrrol-5-amine]
% ACh maximum at 30 μM
  remaining activity at 30 µM: 3%
  IC50: 0.233 µM

## C[C@H]1CCCN(c2cc(C(F)(F)F)c(N[C@H]3C[C@@H]4CN(CC5CCOCC5)C[C@@H]4C3)nn2)C1 [Example 137, (3aR,5s,6aS)-N-(6-((S)-3-methylpiperidin-1-yl)-4-(trifluoro-methyl)pyridazin-3-yl)-2-((tetrahydro-2H-pyran-4-yl)methyl)octahydro-cyclopenta[c]pyrrol-5-amine]
% ACh maximum at 30 μM
  remaining activity at 30 µM: 2%
  IC50: 0.0143 µM

## CC(C)Oc1cc(F)c(-c2cc(C(F)(F)F)c(N[C@H]3C[C@@H]4CN(CC5CCOCC5)C[C@@H]4C3)nn2)cc1F [Example 97, (3aR,5s,6aS)-N-(6-(2,5-difluoro-4-isopropoxyphenyl)-4-(trifluoromethyl)pyridazin-3-yl)-2-((tetrahydro-2H-pyran-4-yl)methyl)octahydro-cyclopenta[c]pyrrol-5-amine]
% ACh maximum at 30 μM
  remaining activity at 30 µM: 3%
  IC50: 0.757 µM

## Cc1ccc(F)cc1-c1cc(C(F)(F)F)c(N[C@H]2C[C@@H]3CN(CC4CCCOC4)C[C@@H]3C2)nn1 (single isomer, unassigned) [Example 120]
% ACh maximum at 30 μM
  remaining activity at 30 µM: 3%
  IC50: 0.0103 µM

## Cc1ccc(F)cc1-c1cc(C(F)(F)F)c(N[C@H]2C[C@@H]3CN(Cc4ccccn4)C[C@@H]3C2)nn1 [Example 103, (3aR,5s,6aS)-N-(6-(5-fluoro-2-methylphenyl)-4-(trifluoromethyl)pyridazin-3-yl)-2-(pyridin-2-ylmethyl)octahydro-cyclopenta[c]pyrrol-5-amine]
% ACh maximum at 30 μM
  remaining activity at 30 µM: 3%
  IC50: 0.0957 µM

## Cc1ccncc1-c1cc(C(F)(F)F)c(N[C@H]2C[C@@H]3CN(CC4CCOCC4)C[C@@H]3C2)nn1 [Example 67, (3aR,5s,6aS)-N-(6-(4-methylpyridin-3-yl)-4-(trifluoromethyl)pyridazin-3-yl)-2-((tetrahydro-2H-pyran-4-yl)methyl)octahydro-cyclopenta[c]pyrrol-5-amine]
% ACh maximum at 30 μM
  remaining activity at 30 µM: 3%
  IC50: 0.133 µM
